Source: PubChem BioAssay AID1259321 (Sanford-Burnham Center for Chemical Genomics, 2017)
The source made the active and inactive calls.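 Rule for the calls: active = half-maximal concentration for changing protein binding to DNA, from the fitted dose curve, below 10 micromolar; inactive = the rest.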

Target: Nuclear receptor subfamily 1 group D member 1 (Homo sapiens) (UniProt P20393)
Test: Rev-erbα–DNA interaction modulators – biochemical, FITC-DNA, fluorescence polarization, dose response (AID 1259321)
Details: Rev-erb alpha-FITC-DNA binding

Sequence of Nuclear receptor subfamily 1 group D member 1 (Homo sapiens) (P20393 whole entry, looked up): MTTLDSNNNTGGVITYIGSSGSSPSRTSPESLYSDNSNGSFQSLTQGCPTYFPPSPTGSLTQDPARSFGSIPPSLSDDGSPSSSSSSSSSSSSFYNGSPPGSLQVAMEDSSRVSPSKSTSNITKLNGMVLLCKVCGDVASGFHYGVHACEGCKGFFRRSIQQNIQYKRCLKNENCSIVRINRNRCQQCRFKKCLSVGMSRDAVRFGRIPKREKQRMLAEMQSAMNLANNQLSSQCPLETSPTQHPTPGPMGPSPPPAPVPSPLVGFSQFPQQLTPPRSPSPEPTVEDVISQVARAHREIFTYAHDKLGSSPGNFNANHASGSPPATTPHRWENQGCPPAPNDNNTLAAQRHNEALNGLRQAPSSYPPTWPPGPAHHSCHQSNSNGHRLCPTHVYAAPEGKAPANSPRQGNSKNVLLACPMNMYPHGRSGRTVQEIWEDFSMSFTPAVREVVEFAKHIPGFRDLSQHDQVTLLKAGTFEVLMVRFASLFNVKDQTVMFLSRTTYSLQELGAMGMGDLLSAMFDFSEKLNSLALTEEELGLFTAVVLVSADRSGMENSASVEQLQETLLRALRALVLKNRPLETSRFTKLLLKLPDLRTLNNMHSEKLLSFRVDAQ

IC50	SMILES
3.15 µM	CC(C)c1ccc(-c2c(C#N)c(N)nc(SCC(=O)N3CCCCC3)c2C#N)cc1
> 40 µM (inactive)	Cc1nonc1NC(=O)CSc1nc2c(C)cccc2cc1C#N
3.42 µM	COc1ccc2c(Cl)c(-c3nnc(SCC(=O)c4ccccc4)n3C)sc2c1
6.11 µM	COc1ccc(CNC(=O)CCCn2c(=S)[nH]c3cc4c(cc3c2=O)OCO4)cc1
inactive	COc1ccc(-c2cc3c(=O)n(CC(=O)Nc4ccc(C(C)=O)cc4)ncn3n2)cc1
1.67 µM	COc1ccc(NC(=O)c2ccc(C(=O)c3cc(OC)ccc3OC)cc2)cc1
9.88 µM	CC1CCN(Cc2cc(=O)oc3ccc(C(C)C)cc23)CC1
0.472 µM	COc1ccc(C#Cc2ccc(C3=CC(=O)CC(C)(C)C3=O)cc2)cc1
4.41 µM	CC(=O)c1sc(NC(=O)COc2ccc(Br)cc2)nc1C
1.9 µM	O=c1ccc(-c2ccc(S(=O)(=O)N3CCN(c4cccc(Cl)c4)CC3)o2)n[nH]1
0.465 µM	COc1ccccc1N=Nc1nc(-c2ccccc2)c(-c2ccccc2)[nH]1
0.527 µM	CN(C)c1ccc(N=Nc2ccccc2C(=O)OCC(=O)N2CCCC2)cc1
> 40 µM (inactive)	Cc1cccc2cc(C#N)c(SCC#N)nc12
> 40 µM (inactive)	COc1ccc(C(=O)c2c[nH]c(C(=O)NCc3cccs3)c2)cc1
7.04 µM	CCCCc1nc2sc3c(SCCN(C)C)ncnc3c2c2c1CCC2
inactive	COc1ccc(-c2nc(N)ncc2Oc2ccccc2Br)c(O)c1
> 40 µM (inactive)	Cc1cc(=O)oc2cc(OCC(=O)Nc3ccc(S(=O)(=O)N(C)C)cc3)ccc12
0.541 µM	O=C(Nc1nc(-c2ccccc2)c(C(=O)c2ccccc2)s1)c1ccc(S(=O)(=O)N2CCCCC2)cc1
> 40 µM (inactive)	O=C(NCc1ccco1)c1ccc(Cn2c(=O)c3sccc3n(Cc3cccc(F)c3)c2=O)cc1
5.38 µM	Nc1ccc(-c2c3ccc(=O)cc-3oc3cc(O)ccc23)cc1C(=O)O
8.48 µM	Cc1ccc(C)c(Nc2nc3c(S(=O)(=O)c4ccccc4)nnn3c3ccccc23)c1
3.55 µM	CN1C(=O)c2cc(NC(=O)Nc3ccccc3F)ccc2OC[C@H]2O[C@@H](CC(=O)NCc3ccc(-c4ccccc4)cc3)CC[C@@H]21
7.27 µM	CCOC(=O)c1ccccc1NC(=O)c1cncc(Br)c1
> 40 µM (inactive)	CCN1C(=O)c2cccc3c(N)ccc(c23)C1=O
inactive	COc1ccc(-c2nnc(NC(=O)C(C)C)s2)c(OC)c1

IC50	SMILES
2.99 µM	Cc1cc(C)cc(N2CC(O)=C(c3nc4ccccc4c(=O)[nH]3)C2=N)c1
inactive	CCOc1ccc(-n2c([S-])c(C(=O)Nc3ccc(S(=O)(=O)N4CCOCC4)cc3)[n+]3cc(C(N)=O)ccc23)cc1
0.436 µM	COc1ccccc1C(=O)Nc1ccc2oc(-c3ccc(F)cc3)nc2c1
4.41 µM	CCCCN1C(=O)/C(=C/C=C2\Oc3ccccc3N2CC)SC1=S
0.779 µM	COc1ccc(Oc2c(Cl)cnn(CC(=O)C(c3ccccc3)c3ccccc3)c2=O)cc1
5.34 µM	Cc1cc(Br)ccc1NC(=O)c1sc2ncn(CC(=O)N3CCN(c4ccccn4)CC3)c(=O)c2c1C
5.97 µM	COc1cc(OC)cc(-c2c(Sc3ccccc3)c3cc(-c4ccc(SC)cc4)ccc3n2C)c1
inactive	COc1cc(OC)cc(C(=O)OCc2cc3ccccc3[nH]c2=O)c1
3.03 µM	O=C(Nc1ccc(O)c(-c2nc3ccccc3s2)c1)c1cccs1
4.59 µM	C=CCNC(=O)c1ccc(-c2nc(-c3ccc(Cl)cc3Cl)cs2)cc1
inactive	COc1ccc(-n2c(SCC(=O)Nc3cc(C)on3)nc3c([nH]c4ccccc43)c2=O)cc1
> 40 µM (inactive)	COC(=O)c1ccc(C(=O)OC)c(NC(=O)N2c3ccccc3Sc3ccccc32)c1
> 40 µM (inactive)	COc1ccc(-c2c(C)nc(N)nc2-c2ccc(OCc3ccc(C)cc3)cc2O)cc1OC
7.15 µM	COc1ccccc1-c1ccc2c(c1)C(C)(Cc1cccc(F)c1)C(=O)N2 (stereo not drawn)
1.84 µM	O=C(NCCc1ccccc1)c1ccc2c(c1)S(=O)(=O)c1cc(Cl)ccc1C2=O
> 40 µM (inactive)	O=S(=O)(Cc1cc(NCc2ccccc2)nc(-c2ccncc2)n1)c1ccccc1
> 40 µM (inactive)	CCOC(=O)c1cc2c(=O)c3ccccc3oc2nc1C
inactive	Brc1ccc(Sc2cnc3ccccc3n2)cc1
4.84 µM	Cc1c(Br)ccc(NC(=O)Cn2nc(-c3cccs3)ccc2=O)c1C
1.56 µM	COC(=O)c1ccc(Cn2ccc3ccc(-c4ccc5ccn(C(=O)c6ccc(C)cc6)c5c4)cc32)cc1
inactive	Nc1cccc(N2C(=O)c3cccc4c(N)ccc(c34)C2=O)c1
> 40 µM (inactive)	Cc1nc(N2CCN(c3ccccn3)CC2)c2c(C)c(C(=O)N3CCN(c4cccc(Cl)c4)CC3)sc2n1
inactive	Cc1cc(OC(C)C(=O)NCc2cccnc2)c2c(C)c(Cc3ccccc3)c(=O)oc2c1 (stereo not drawn)
inactive	COc1ccccc1NC(=O)c1sc2nc(Cc3ccccc3)cc(C(F)(F)F)c2c1N
4.85 µM	CSc1nc(N)c(C#N)c(-c2ccc(Cl)cc2)c1C#N

IC50	SMILES
> 40 µM (inactive)	CCOC(=O)CSc1nc2cc3c(cc2cc1C#N)OCCO3
7.94 µM	Cc1cccc2cc(C(c3nnnn3Cc3ccccc3)N3CCN(c4ccccc4)CC3)c(=O)[nH]c12 (stereo not drawn)
5.74 µM	Cc1[nH]nc2nc(SCC(=O)NC3CCCCC3)n(-c3ccc(Br)cc3)c(=N)c12
> 40 µM (inactive)	CC(=O)c1cc2c(cc1N/C(=N/S(=O)(=O)c1ccc(C)cc1)c1ccc(Cl)cc1)OCO2
inactive	COc1ccccc1NC(=O)CSc1nc(N)c(C#N)cc1C#N
4.5 µM	CCOc1ccc(CCNC(=O)c2cc(-c3ccccc3)c(N3CCOCC3)s2)cc1
> 40 µM (inactive)	CCOC(=O)c1nn(-c2ccc(F)cc2)c(=O)cc1OCC(=O)Nc1ccc(F)c(F)c1
1.92 µM	COc1ccc(-c2cc(C(=O)Nc3cccnc3Cl)no2)cc1OC
inactive	CCOc1ccccc1NC(=O)CSc1nc(N)c(C#N)cc1C#N
5.55 µM	CCOC(=O)/C(=C\C=C1/Sc2cc(OCC)c(OCC)cc2N1CC)C(C)=O
0.78 µM	N#Cc1c(N)nc2c3c(sc(=N)c2c1N)NC(=O)CC3c1c(F)cccc1Cl (stereo not drawn)
2.67 µM	CCN1/C(=C\c2ccc3ccccc3[n+]2CC)Sc2cc(C)ccc21
7.03 µM	COc1ccc2c(C)cc(SCC(=O)Nc3ncc(Cl)cc3Cl)nc2c1
8.24 µM	CCN(CC)C(=O)CSc1nc(N)c(C#N)c(-c2cccs2)c1C#N
> 40 µM (inactive)	CCn1c(SCC(=O)c2c[nH]c3ccccc23)nnc1-c1cccs1
4.6 µM	Fc1cccc2sc(Nc3nc4c(F)cccc4s3)nc12
> 40 µM (inactive)	N#CCCN(CCC#N)S(=O)(=O)c1ccc(C(=O)Nc2nc(-c3ccccc3)c(C(=O)c3ccccc3)s2)cc1
0.876 µM	Cc1ccc(S(=O)(=O)c2nnn3c2nc(N2CCN(c4ccccn4)CC2)c2ccccc23)cc1
4.17 µM	COc1ccc(CC(=O)Nc2ccc(-c3noc(-c4ccccc4OC)n3)cc2)cc1
inactive	Cc1nn(C)cc1N1C(=O)c2cccc3c(N)ccc(c23)C1=O
inactive	COc1ccc(-n2nc(C(=O)NCC(=O)Nc3cccc(Cl)c3)c3ccccc3c2=O)cc1
1.8 µM	CCOC(=O)c1sc(NC(=S)NC(=O)C2CCCC2)cc1C
> 40 µM (inactive)	CNC(=O)COc1ccccc1C(=O)Nc1ccc2c(c1)oc1ccccc12
